The values below come from a melting point compilation (Tetko et al.; mined from patent text by program, amines drawn as free bases though some values may be those of a salt).

As usually defined, the melting point is the temperature of the solid-liquid transition. Molecule `Cn1ccnc1-c1ccccc1Nc1nc(Nc2ccc3c(c2)CCC(=O)CC3)ncc1Cl` gave a melting point of 149 °C.
In the case of `CCOC(=O)C(=O)C1C(=O)c2cccc3cccc1c23` (stereo not given) it was 101 to 103 °C.
In the case of `COc1ccc(Nc2cc(C)nc(SCC(N)=NO)n2)cc1` it was 189 to 191 °C; in that of `CC(C)CCCC(C)C1CCC2C3=CC=C4CC(O)C(OCCCO)C(O)C4(C)C3CCC21C` (stereo not given), 114 to 116 °C; in that of `CCCCCCCCCCCCCCCCCCOc1cccc(N)c1`, 77 to 78 °C.
In the case of `CCOP(=O)(OCC)C(Nc1nccs1)P(=O)(OCC)OCC` it was 103 to 104 °C; in that of `CC(C)(C)c1nc2c(Cl)cc(F)c(-n3c(=O)cc(C(F)(F)F)n(N)c3=O)c2o1`, 90 to 92 °C.
For the molecule `CCCc1ncnc(O)c1Cc1ccc(-c2ccccc2C#N)cc1`, the melting point stood at 158 °C.
In the case of `Cc1c(C)c2c(c(C)c1O)SC(C)O2` (stereo not given) it was 125 to 127 °C; in that of `CCn1ncc2c1ncc1c(N3CCOCC3)nc3cc(C)nn3c12`, 179 to 180 °C; in that of `CN(C)S(=O)(=O)c1ccc2c(c1)C(=O)c1cc(Br)ccc1CC2`, 142 to 145 °C.
In the case of `O=C(O)c1cccc2c(=O)cc(-c3cccc(OCc4ccccc4)c3)oc12` it was 121 to 122 °C; in that of `CC(=O)OC1CSC(Oc2cccnc2-c2cncnc2)C(OC(C)=O)C1OC(C)=O` (stereo not given), 205 °C; in that of `C[C@@H](O)C(O)(Cn1ccnc1)c1ccc(F)cc1F` (stereo not given in full), 73 to 76 °C.
`COc1cc(Nc2nccc(NC3CCN(Cc4ccccc4)CC3)n2)cc(OC)c1OC` had a melting point of 136 °C.
`O=C(NCCCCn1ccnc1)c1ccc(Cl)c(Cl)c1`: the melting point is 86 to 88 °C.
In the case of `CCCCN1N=C(c2ccc3c(c2)C(C)(C)CC(=O)N3C)C(C)CC1=O` (stereo not given) it was 137 to 139 °C; in that of `CCOC(=O)CCc1ccc(N[C@@H](CCC(N)=O)C(=O)O)cc1`, 180 to 181 °C; in that of `CCOC(=O)c1cn(CCCl)c2nc(N3CCN(C(=O)OCC)CC3)c(F)cc2c1=O`, 143 to 144 °C.
In the case of `N#Cc1cccc(C(Cl)(Cl)Cl)c1Cl` it was 106 to 107 °C; in that of `CCCCCCCCCCOCc1ccc(CO)cc1`, 20 to 31 °C.
Molecule `COC(=O)c1cc(C)sc1NC(=O)Cc1ccccc1` gave a melting point of 107 to 109 °C.
In the case of `CCOC(=O)CCCCCCC1NC(=O)NC1=O` (stereo not given), the melting point came to 110 °C.
As to `CS(=O)(=O)c1cccc(C(=O)Nc2ccc(-n3nc(C(F)(F)F)cc3C3CC3)cc2)c1`, the melting point was 178 to 184 °C.
In turn, `C[C@@H](O)c1cc2cc(CN3CCOCC3)cc3c(=O)c(C(=O)NCc4ccc(Cl)cc4)cn1c23` registered a melting point of 75 to 79 °C.
Molecule `CCCCCCCCCCCc1ccc(CC(=O)O)cc1` came in with a melting point of 83 to 84 °C.
In the case of `CCCCCc1ccc(-c2nc(C)c(C(C)=NNC(=N)N)s2)cc1` it was 210 °C.
Consider `O=C(C=Cc1cccc(F)c1F)c1cnc2sc3c(n12)CCCCC3`, for which the melting point lay in the range of 193 to 195 °C.
In the case of `O=C(O)CCC(=C1SCCCS1)c1ccc(Oc2ccccc2)cc1` it was 154 to 155 °C; in that of `O=S(=O)(Nc1ccc2c(OCc3ccc4ccccc4c3)cccc2c1)C(F)(F)F`, 140 to 142 °C.
In the case of `C=C(C)COc1ccc(C(=O)C=Cc2ccccc2)c(O)c1` it was 114 to 115 °C; in that of `Cc1oc(-c2ccccc2)nc1COc1ccc(CN(O)C(N)=O)cc1`, 157 to 159 °C.
The molecule `CCCCCCCCNC(=O)Oc1ccc(Oc2ccccc2)cc1` gave a melting point of 44 to 46 °C.
In the case of `COc1cc2ncnc(N3CCCCc4ccc(Br)cc43)c2cc1OC` it was 209 to 217 °C; in that of `CCCCOC(=O)NCCc1ccc(OCC(O)CNC(C)C)nc1` (stereo not given), 93 to 95 °C.
In the case of `Cc1ccc(N(C)S(=O)(=O)c2cccs2)c2[nH]c(C3=NCC(CC(N)=O)S3)cc12` (stereo not given) it was 120 to 121 °C; in that of `COc1ccc(-c2cc(C(C)(O)C(F)(F)F)[nH]c2-c2ccc(OC)cc2)cc1` (stereo not given), 111 to 112 °C.
In the case of `FC(F)(F)c1ccc(C=Cc2nc(CNc3ccc(OCCCn4ccnn4)cc3)co2)cc1` it was 134 to 136 °C; in that of `Cc1cc(C)nc(-n2c(C(=O)Nc3ccc4c(c3)nc(C)n4C)cc3cc(F)ccc32)c1`, 130 to 140 °C.
Molecule `O=C1OC(CCl)CN1c1ccc(Cl)cc1` (stereo not given) displayed a melting point of 119 to 120 °C.
In turn, `CCOc1ccccc1C(=O)NCCN1CCC(O)(c2ccc(Cl)cc2)CC1` displayed a melting point of 171 to 173 °C.
The molecule `O=Cc1ncc(C(O)C(F)(F)F)s1` (stereo not given) displayed a melting point of 64 to 66 °C.
In the case of `CC(=O)n1nc(-c2c(C)cc(C)c([N+](=O)[O-])c2C)n2nc(C(C)(C)C)c(Cl)c12` it was 188 to 191 °C; in that of `COC(=O)c1ccc(-c2coc3ccc(-c4nnc(C)o4)cc23)c(Cl)c1`, 171 to 172 °C.
In the case of `C/C(=C\c1ccc(OCCN2CCOCC2)cc1)c1ccc2c(c1)C(C)(C)CCC2(C)C` it was 107 to 109 °C.
In the case of `O=C(COc1cccc(CCNC(=O)OCc2ccccc2)c1)Nc1nnn[nH]1` it was 164 to 167 °C; in that of `Nc1ccc2nc(-c3cccnc3)nn2c1`, 230 °C.
In the case of `CC12CCC(O)CC1CCC1C2CCC2(C)C(=O)CCC12O` (stereo not given), the melting point lay within 214 to 217 °C.
In the case of `COc1ccc(C2(COc3cccc4cc(NS(=O)(=O)C(F)(F)F)ccc34)N=CNO2)cc1` (stereo not given) it was 146 to 148 °C; in that of `Cc1nnc2n1-c1sc(CCC(=O)N3CCOCC3)cc1C(c1ccccc1Cl)=NC2C` (stereo not given), 162 to 163 °C; in that of `CC(Cc1ccc(OCc2cccc(C(N)=O)c2)cc1)NCCC(c1ccccc1)c1ccccc1` (stereo not given), 188 to 190 °C.
In the case of `ClC1=Nc2ccccc2Sc2ccccc21` it was 93 to 97 °C.
In the case of `O=C1NCCN(Cc2ccc(Cl)cc2)C1c1ccccc1` (stereo not given) it was 103 to 104 °C; in that of `OC(CN1CCNC1=S)c1ccccn1` (stereo not given), 120 °C; in that of `Cc1c(NC(=O)c2ccc(OC[C@@H]3CCCO3)cc2)ccc2cc(CN[C@@H]3CCCC[C@H]3O)cnc12`, 142 to 143 °C.
Molecule `COC(=O)CCC(=O)c1ccc(OC)c(CCl)c1` yielded a melting point of 78 to 80 °C.
In the case of `CCCCc1nc2cccc(C(=O)O)c2n1Cc1ccc(-c2ccccc2-c2nnnn2C(c2ccccc2)(c2ccccc2)c2ccccc2)cc1`, the melting point was in the range of 120 to 123 °C.
In the case of `O=C1C(=O)c2ccccc2C2=C1SCC1(CCN(CC3CCCO3)CC1)O2` (stereo not given) it was 155 to 159 °C.
In turn, `CCn1cc(C(=O)O)c(=O)c2cc(F)c(N3CCN(Cc4ccc(N)cc4)CC3)c(F)c21` yielded a melting point of 220 to 221 °C.
On to `O=C(O)c1c[nH]c(Cl)c1`, for which the melting point was in the range of 175 to 178 °C.
In turn, `CCCCNc1nc(C)c(C#N)cc1C(=O)OCC` returned a melting point of 61 to 63 °C.
`NCCCCCCCCO` returned a melting point of 48 to 53 °C.
With `C=Cn1c(=O)c(C#N)c(N2CCN(C(=O)c3cccs3)CC2)c2cccnc21`, the melting point is 228 °C.
In the case of `CC(C)(C)c1ccc([PH](=O)c2ccc(C(C)(C)C)cc2)cc1` it was 142 °C; in that of `CN(C)c1c(-c2ccc(Cl)cc2)sc2ccccc12`, 81 to 83 °C.
As to `Cc1cccc(C(N)=O)c1Nc1nc(Nc2ccc3c(c2)N(C(C)C)C(=O)CCC3)ncc1Cl`, the melting point is 140 to 160 °C.
In the case of `COc1cc2c3c(c1)c(N)c(C(=O)N1CCc4ccccc41)c(=O)n3CCO2` it was 130 to 140 °C.
Molecule `CN(C)C=CC(=O)c1ccc(F)cc1` displayed a melting point of 83.5 to 84 °C.
In the case of `NC1=C2C(=Nc3ccccc3S2(=O)=O)c2ccccc2C1=O` it was 264 to 266 °C; in that of `COc1cc(NC(=O)CN2CCN(c3ncccc3C#N)CC2)cc(OC)c1OC`, 123 to 124 °C.
Take `COc1ccn2c(C)c(CCc3ccc4nc(N)oc4c3)nc2c1`: the melting point was in the range of 220 to 221 °C.
In the case of `O=C(Nc1ccccc1)O[C@H]1COC(c2cc3ccccc3[nH]2)=N[C@@H]1c1ccccc1` (racemic) it was 166 °C; in that of `CCOC(=O)C(=O)Nc1ccc2ccccc2c1NC(=O)C(=O)OCC`, 150 to 151 °C; in that of `CCc1nc(C)c(/C=C(\NC(=O)c2ccc(C(=O)NCc3cccc(O)c3)cc2Cl)C(=O)OC)s1`, > 200 °C.
As to `FC(F)Oc1cn(-c2c(Cl)cc(C(F)(F)F)cc2Cl)nc1C(F)(F)F`, the melting point fell in the range of 55.5 to 58 °C.
In the case of `CCSC(N)=C(C#N)C#N` it was 180 to 182 °C.
With `Cc1cc2c(s1)Nc1ccccc1N=C2N1CCN(C)[C@@H](COc2ccccc2)C1`, the melting point was in the range of 74 to 88 °C.
`Cc1c(Cc2cccc(C(F)(F)F)c2)sc2c(-c3cccc(C(=O)NCCO)c3)cccc12` displayed a melting point of 140 to 145 °C.
In the case of `CCOC(=O)C1(C(=O)OCC)CCC2(CC1)c1cc(OC)c(OC)cc1CCN2C(=O)OCc1ccccc1` it was 101 to 102 °C; in that of `O=c1cc(NCCN2CCN(c3ccccc3F)CC2)cn[nH]1`, 103 to 105 °C; in that of `CC(C)(C)c1cc(-c2nn(CC(F)(F)C(F)F)c3ncccc23)cc(C(C)(C)C)c1O`, 105 to 106 °C.
As for `CC(=O)Nc1c(C(O)(C(F)(F)F)C(F)(F)F)cc(Cl)c2ccccc12`, the melting point fell in the range of 161 to 162 °C.
In the case of `CN1C=CCC2C1N2S(=O)(=O)c1ccc(N)cc1` (stereo not given) it was 188 to 190 °C; in that of `C#CCNC(=O)C(F)(F)F`, 31 to 33 °C.
In the case of `Clc1cc2c3c(c1)C(c1ccccc1)Nc1ccccc1N3CC2` (stereo not given) it was 192 to 194 °C; in that of `CC(=O)NCC1(N2CCCCC2)CCCCC1`, 104 °C.
For `CCOC(=O)Oc1cc2c(s1)CCN([C@H](C(=O)OC)c1ccccc1Cl)C2`, the melting point was in the range of 42 to 44 °C.
In the case of `O=C1NCc2c(-c3ccccc3)cccc2N1Cc1ccccc1` it was 198 to 199 °C.
In turn, `CC(=O)NC1(c2ccccc2)CC1` returned a melting point of 94 to 95 °C.
`CNC(=O)Cn1c(=O)c(=O)[nH]c2cc(C(F)(F)F)c(-n3cccc3)cc21`: the melting point was > 250 °C.
